Source: patent publication US20250074943A1, “DLL3 BINDING PEPTIDES AND USES THEREOF” (AMGEN INC., priority 2021, published 2025)
Read-outs that look alike come from different tables or passages of the source. Bridge positions count the residues as written; N and C are the ends. Peptide text beside a SMILES is read from it.

Target: T1, recombinant DLL3 ectodomain (rhDLL3-Fc) (Homo sapiens, UniProt Q9NYJ7)
T1 construct: The recombinant DLL3 ectodomain (rhDLL3-Fc) was biotinylated; Fc
T1 sequence (Q9NYJ7 27-492 limits assumed): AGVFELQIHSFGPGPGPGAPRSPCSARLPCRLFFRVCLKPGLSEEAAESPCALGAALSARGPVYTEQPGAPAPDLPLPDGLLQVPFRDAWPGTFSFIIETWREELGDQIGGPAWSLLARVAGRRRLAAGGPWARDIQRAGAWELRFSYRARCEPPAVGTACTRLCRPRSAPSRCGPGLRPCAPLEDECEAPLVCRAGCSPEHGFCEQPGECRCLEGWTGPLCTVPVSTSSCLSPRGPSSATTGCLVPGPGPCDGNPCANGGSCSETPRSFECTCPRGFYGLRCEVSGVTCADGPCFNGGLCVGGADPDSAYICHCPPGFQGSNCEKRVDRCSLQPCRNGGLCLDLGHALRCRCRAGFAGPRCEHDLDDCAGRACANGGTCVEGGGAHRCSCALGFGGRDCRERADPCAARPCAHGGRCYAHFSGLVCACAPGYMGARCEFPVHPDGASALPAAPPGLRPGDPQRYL
Test: Binding kinetic assay using Bio-layer interferometry (BLI)
Details: for binding mode to DLL3: peptides at 20, 4 and 0.8 μM, fit to 1:1 Langmuir binding model; for affinity: wider dose-response 10×KD to 0.1×KD
Protocol: Binding kinetic assays were performed using Bio-layer interferometry (BLI) technology. The recombinant DLL3 ectodomain (rhDLL3-Fc) was biotinylated using EZ-Link Sulfo-NHS-LC-LC-Biotin Kit according to the manufacturer's protocol (Pierce by Thermo Fisher Scientific). The recombinant protein was incubated with an excess of NHS-LC-LC Biotin ester, in a molar ratio of 1:3 (protein: biotin), at 25° C. for 90 min. The un-reacted biotin ester was removed by subsequent buffer exchange on 0.5 ml Zeba spin desalting columns 7K MWCO (Pierce by Thermo Fisher Scientific).

[1] = Table 4, ± values from three independent experiments, read-out: RT (residence time) (converted)
[2] = range over the seven peptides, read-out: residence time
[3] = Table 4, ± values from three independent experiments

Row | SMILES | residence time [1] | binding mode to DLL3 | residence time [2] | affinity | Kd (Table 4, global fitting 1:1 Langmuir, koff vs kon ratio, ± values from three independent experiments) | RT (residence time) [3]
1 | CC(C)[C@H](NC(=O)[C@@H](NC(=O)[C@H](CCC(=O)O)NC(=O)[C@H](C)N)[C@@H](C)O)C(=O)N[C@@H](CCC(=O)O)C(=O)N[C@@H](Cc1ccccc1)C(=O)N[C@@H](Cc1ccc(O)cc1)C(=O)NCC(=O)N[C@H]1CSSC[C@@H](C(=O)N[C@H](C(=O)N[C@@H](Cc2c[nH]c3ccccc23)C(N)=O)[C@@H](C)O)NC(=O)[C@H]([C@@H](C)O)NC(=O)[C@H](Cc2ccc(O)cc2)NC(=O)[C@H](CCC(=O)O)NC(=O)[C@H](Cc2ccc(O)cc2)NC(=O)[C@H](C)NC(=O)[C@H](CC(=O)O)NC(=O)CNC(=O)[C@H]([C@@H](C)O)NC1=O [PepSP1147] (H-AETVEFYGCTGDAYEYTCTW-NH2; disulfide 9-18; N-terminus assumed) | 1.09 min | dose-response saturable binding | 1 to 3 min | double-digit nM range |  | 
2 | CSCC[C@@H]1NC(=O)[C@H](CO)NC(=O)[C@@H](NC(=O)CNC(=O)[C@H](Cc2ccc(O)cc2)NC(=O)[C@H](Cc2ccccc2)NC(=O)[C@H](CCC(=O)O)NC(=O)[C@@H](NC(=O)[C@@H](NC(=O)[C@H](CCC(=O)O)NC(=O)[C@H](C)N)[C@@H](C)O)C(C)C)CSSC[C@@H](C(=O)N[C@@H](C)C(=O)N[C@@H](Cc2c[nH]c3ccccc23)C(N)=O)NC(=O)[C@H]([C@@H](C)O)NC(=O)[C@H](C(C)C)NC(=O)CNC(=O)[C@H](CCCNC(=N)N)NC(=O)[C@H](Cc2c[nH]c3ccccc23)NC(=O)[C@H](CC(=O)O)NC1=O [PepSP1158] (H-AETVEFYGCSMDWRGVTCAW-NH2; disulfide 9-18) | 0.517 min | dose-response saturable binding |  |  |  | 
3 | CC(C)C[C@@H]1NC(=O)[C@@H](NC(=O)[C@H](Cc2ccc(O)cc2)NC(=O)[C@H](CC(=O)O)NC(=O)[C@H](Cc2ccccc2)NC(=O)[C@H](CCC(=O)O)NC(=O)[C@@H](NC(=O)[C@@H](NC(=O)[C@H](CCC(=O)O)NC(=O)[C@H](C)N)[C@@H](C)O)C(C)C)CSSC[C@@H](C(=O)N[C@@H](CCC(N)=O)C(=O)N[C@@H](CC(N)=O)C(N)=O)NC(=O)CNC(=O)[C@H](Cc2c[nH]c3ccccc23)NC(=O)[C@H](C)NC(=O)[C@H](CC(=O)O)NC(=O)[C@@H]2CCCN2C(=O)[C@H](C)NC(=O)[C@H](Cc2c[nH]c3ccccc23)NC1=O [PepSP1159] (H-AETVEFDYCLWAPDAWGCQN-NH2; disulfide 9-18; N-terminus assumed) | 0.1 min | dose-response saturable binding |  |  |  | 
4 | CC(C)[C@H](NC(=O)[C@@H]1CSSC[C@H](NC(=O)CNC(=O)[C@H](CCCNC(=N)N)NC(=O)[C@H](Cc2ccccc2)NC(=O)[C@H](CCC(=O)O)NC(=O)[C@@H](NC(=O)[C@@H](NC(=O)[C@H](CCC(=O)O)NC(=O)[C@H](C)N)[C@@H](C)O)C(C)C)C(=O)N[C@@H]([C@@H](C)O)C(=O)NCC(=O)N[C@@H](CC(N)=O)C(=O)N[C@@H](C(C)C)C(=O)N[C@@H](Cc2ccc(O)cc2)C(=O)N[C@@H](CC(=O)O)C(=O)N[C@@H](Cc2c[nH]c3ccccc23)C(=O)N[C@@H]([C@@H](C)O)C(=O)N1)C(=O)N[C@@H](Cc1c[nH]c2ccccc12)C(N)=O [PepSP1160] (H-AETVEFRGCTGNVYDWTCVW-NH2; disulfide 9-18) | 0.783 min | dose-response saturable binding |  |  |  | 
5 | CC(C)[C@H](NC(=O)[C@@H](NC(=O)[C@H](CCC(=O)O)NC(=O)[C@H](C)N)[C@@H](C)O)C(=O)N[C@@H](CCC(=O)O)C(=O)N[C@@H](Cc1ccccc1)C(=O)N[C@@H](Cc1c[nH]c2ccccc12)C(=O)N[C@@H](CC(=O)O)C(=O)N[C@H]1CSSC[C@@H](C(=O)N[C@H](C(=O)N[C@@H](Cc2c[nH]c3ccccc23)C(N)=O)[C@@H](C)O)NC(=O)[C@H]([C@@H](C)O)NC(=O)[C@H](Cc2c[nH]c3ccccc23)NC(=O)[C@H](CC(=O)O)NC(=O)[C@H](CC(=O)O)NC(=O)[C@H]([C@@H](C)O)NC(=O)[C@H](CC(N)=O)NC(=O)CNC(=O)[C@H](Cc2c[nH]c3ccccc23)NC1=O [PepSP1161] (H-AETVEFWDCWGNTDDWTCTW-NH2; disulfide 9-18; N-terminus assumed) | 1.46 min | dose-response saturable binding | 1 to 3 min | double-digit nM range |  | 87.8 ± 6 s
6 | CC(C)C[C@H](NC(=O)[C@H](Cc1ccccc1)NC(=O)[C@H](CCC(=O)O)NC(=O)[C@@H](NC(=O)[C@@H](NC(=O)[C@H](CCC(=O)O)NC(=O)[C@H](C)N)[C@@H](C)O)C(C)C)C(=O)NCC(=O)N[C@H]1CSSC[C@@H](C(=O)N[C@H](C(=O)N[C@@H](Cc2c[nH]c3ccccc23)C(N)=O)C(C)C)NC(=O)[C@H]([C@@H](C)O)NC(=O)[C@H](Cc2c[nH]c3ccccc23)NC(=O)[C@H](CCC(=O)O)NC(=O)[C@H](CO)NC(=O)[C@H](CC(N)=O)NC(=O)[C@H](CC(=O)O)NC(=O)CNC(=O)[C@H](Cc2c[nH]cn2)NC1=O [PepSP1163] (H-AETVEFLGCHGDNSEWTCVW-NH2; disulfide 9-18) | 2.78 min | dose-response saturable binding | 1 to 3 min | double-digit nM range |  | 166.8 ± 19.5 s

Results, then the compound that gave them:

Row | residence time [1] | binding mode to DLL3 | residence time [2] | affinity | Kd (Table 4, global fitting 1:1 Langmuir, koff vs kon ratio, ± values from three independent experiments) | RT (residence time) [3] | SMILES
7 | 2.78 min | dose-response saturable binding |  |  | 0.125 µM |  | CC(C)[C@@H]1NC(=O)CNC(=O)[C@H](CCC(=O)O)NC(=O)[C@H]([C@@H](C)O)NC(=O)[C@H](Cc2c[nH]c3ccccc23)NC(=O)[C@H](Cc2ccc(O)cc2)NC(=O)[C@@H](NC(=O)[C@@H](NC(=O)[C@H](Cc2c[nH]c3ccccc23)NC(=O)[C@H](Cc2ccccc2)NC(=O)[C@H](CCC(=O)O)NC(=O)[C@@H](NC(=O)[C@@H](NC(=O)[C@H](CCC(=O)O)NC(=O)[C@H](C)N)[C@@H](C)O)C(C)C)[C@@H](C)O)CSSC[C@@H](C(=O)N[C@@H](CCCNC(=N)N)C(=O)N[C@@H](Cc2c[nH]c3ccccc23)C(N)=O)NC(=O)CNC(=O)[C@H](CO)NC1=O [PepSP1151] (H-AETVEFWTCYWTEGVSGCRW-NH2; disulfide 9-18)
8 | 2.95 min | dose-response saturable binding |  |  |  |  | CC(C)[C@@H]1NC(=O)[C@H]([C@@H](C)O)NC(=O)[C@H](CCC(=O)O)NC(=O)[C@H](CCC(=O)O)NC(=O)[C@H](Cc2ccc(O)cc2)NC(=O)[C@H](Cc2c[nH]c3ccccc23)NC(=O)[C@H](CC(=O)O)NC(=O)[C@@H](NC(=O)[C@H](CCCNC(=N)N)NC(=O)[C@H](Cc2c[nH]c3ccccc23)NC(=O)[C@H](Cc2ccc(O)cc2)NC(=O)[C@H](CCC(=O)O)NC(=O)[C@@H](NC(=O)[C@@H](NC(=O)[C@H](CCC(=O)O)NC(=O)[C@H](C)N)[C@@H](C)O)C(C)C)CSSC[C@@H](C(=O)NCC(=O)N[C@H](C(N)=O)[C@@H](C)O)NC(=O)[C@H](C)NC1=O [PepSP1155] (H-AETVEYWRCDWYEETVACGT-NH2; disulfide 9-18)
9 | 1.48 min | dose-response saturable binding |  |  |  |  | CC(C)[C@H](NC(=O)[C@@H](NC(=O)[C@H](CCC(=O)O)NC(=O)[C@H](C)N)[C@@H](C)O)C(=O)N[C@@H](CCC(=O)O)C(=O)N[C@@H](Cc1ccccc1)C(=O)N[C@@H](Cc1c[nH]c2ccccc12)C(=O)N[C@@H](CO)C(=O)N[C@H]1CSSC[C@@H](C(=O)NCC(=O)N[C@H](C(N)=O)[C@@H](C)O)NC(=O)[C@H](CO)NC(=O)[C@H](C(C)C)NC(=O)[C@H]([C@@H](C)O)NC(=O)[C@H](Cc2c[nH]c3ccccc23)NC(=O)[C@H](Cc2ccc(O)cc2)NC(=O)[C@H](CO)NC(=O)[C@H](Cc2ccc(O)cc2)NC(=O)[C@H](Cc2c[nH]cn2)NC1=O [PepSP1157] (H-AETVEFWSCHYSYWTVSCGT-NH2; disulfide 9-18; N-terminus assumed)
10 | 0.85 min | dose-response saturable binding |  |  |  |  | CC(C)[C@H](NC(=O)[C@@H](NC(=O)[C@H](CCC(=O)O)NC(=O)[C@H](C)N)[C@@H](C)O)C(=O)N[C@@H](CCC(=O)O)C(=O)N[C@@H](Cc1ccccc1)C(=O)N[C@@H](Cc1c[nH]c2ccccc12)C(=O)N[C@H](C(=O)N[C@H]1CSSC[C@@H](C(=O)N[C@@H](CO)C(=O)N[C@@H](Cc2c[nH]c3ccccc23)C(N)=O)NC(=O)[C@H]([C@@H](C)O)NC(=O)[C@H](Cc2c[nH]c3ccccc23)NC(=O)[C@H](CCC(=O)O)NC(=O)[C@H](CC(=O)O)NC(=O)[C@H](C)NC(=O)[C@H](CC(N)=O)NC(=O)CNC(=O)[C@H](Cc2c[nH]cn2)NC1=O)[C@@H](C)O [PepSP1162] (H-AETVEFWTCHGNADEWTCSW-NH2; disulfide 9-18)
